US8629144B2, “Polymorphic and hydrate forms, salts and process for preparing 6-{difluoro[6-(1-methyl-1H-pyrazol-4-yl)[1,2,4]triazolo[4,3-b]pyridazin-3-yl]methyl}quinoline” (Janssen Pharmaceutica NV, priority 2007, dated 2014)
In brackets after ≈: the same amount, converted by molar mass. Like-named read-outs stand apart in the source and are kept apart here.

Columns and labels:
[1] = Aqueous solubility of Forms I, III and hydrate at different pH; assay type: physicochemical
Method: Solubility of polymorph Forms I and III and the hydrate form of the compound of formula (I) was tested in aqueous conditions at different pH values.

[2] = Slurry conversions on Form III and Form III/hydrate (XRPD); assay type: physicochemical; design: key: Form III; hydrate
Method: 20 mg Form III with 0.25 ml solvent (2-propanol; or 2-propanone/water (8/2, v/v); or methanol/water (8/2, v/v)) was deposited in a vial. For each solvent, 3 vials were prepared and stored each at different temperatures (4° C., RT, 40° C.) for two days. After storage, the slurry was spread on a paper filter, the solid fractions were collected and dried 2 hours at RT. In a further experiment, the Form III was seeded with the hydrate using methanol/water (8/2, v/v) as the solvent. The polymorphic composition was measured using XRPD.

[3] = Thermal conversions in DSC oven (XRPD); assay type: physicochemical
Method: Form III or hydrate form were thermally treated in a DSC oven (heating rate 10° C./min) up to selected temperatures (isotherm for 1 min) using an open sample pan. The selected temperatures are for Form III: 110° C. and 170° C.; and for hydrate form: 70° C., 110° C. and 170° C. The polymorphic composition of the obtained fractions was measured by XRPD. Table 12 summarises XRPD patterns in DSC treated Form III. Table 13 summarises XRPD patterns in DSC treated hydrate

[4] = Water adsorption (hygroscopicity) of salts of compound (I); assay type: physicochemical; conditions: for Water adsorbed: dried 1 h at 25° C. under dry nitrogen flow
Method: Free base of compound (I) (3 g; 7.95 mmol) was dissolved in absolute ethanol (40 mL) and heated to 78° C. An acid (HCl 6M in 2-propanol, 2.0 ml (12 mmol); HBr 48% in water, 0.98 mL (8.75 mmol); methane sulphonic acid, 917 mg (9.54 mmol); ethane sulphonic acid, 1.05 g (9.54 mmol) or p-toluene sulphonic acid monohydrate (1.66 g (8.75 mmol)) was added to the hot reaction mixture. The reaction mixture was allowed to cool to room temperature. The resulting precipitate was filtered off, washed with ethanol and dried under vacuum at 60° C.
The obtained solids were analysed by acid titration, Karl-Fisher titration and HPLC. A physical characterisation was performed (DSC, TGA, XRD and IR, DVS).

[5] = Water solubility of salts of compound (I); assay type: physicochemical; conditions: 24 hours at 20° C.; for Measured pH: saturated solution in water; for Solubility: water, UV spectrometry
Method: An excess of different salts of compound (I) was agitated with water during 24 hours at 20° C. Following filtration, the concentration of compound (I) in the solution was determined by UV spectrometry.

[6] = rat, in vivo, po
Method: (§1) Five male SD rats (225±11 g) were used per salt form. From each rat a complete plasma concentration time profile was obtained. Tap water and food were available ad libitum. The test involved salts of compound (I) with HBr, HCl, methanesulphonic acid (mesylate), ethanesulphonic acid (esylate) or p-toluenesulphonic acid (tosylate). The individual salts were dispersed in a 0.5% methocel suspension to a final concentration of 1 mg base eq./ml. The formulations were stored at room temperature.
(§2) Administration was oral by gastric intubation: 10 ml/kg to obtain a dose of 10 mg base eq./kg.
(§3) Blood samples were collected 30 min, 1, 2, 4, 7 and 24 h after dose administration.
(§4) Blood was collected by multiple sampling from a tail vein into Multivette® 600 K3E tubes (Sarstedt). Samples were placed immediately on melting ice and plasma was obtained following centrifugation at 4° C. for 10 minutes at approximately 1900×g. All samples were shielded from daylight and stored at ≦−18° C. prior to analysis.
(§5) A limited pharmacokinetic analysis was performed using WinNonlin™ Professional (Version 5.1). A non-compartmental analysis using the lin/log trapezoidal rule with lin/log interpolation was used for all data.

[7] = Absorption and plasma kinetics after oral administration of salts to rat; conditions: male SD rats, oral 10 mg base eq./kg
Method: as §1, §2, §3, §4, §5

Cn1cc(-c2ccc3nnc(C(F)(F)c4ccc5ncccc5c4)n3n2)cn1 [Form III, 6-{difluoro[6-(1-methyl-1H-pyrazol-4-yl)[1,2,4]triazolo[4,3-b]pyridazin-3-yl]methyl}quinoline]
Solubility ([1]; 0.01 HCl): 78 µg/mL (≈ 207 µM) | Solubility ([1]; 0.1 HCl): 970 µg/mL (≈ 2570 µM) | Solubility ([1]; pH2): 130 µg/mL (≈ 345 µM) | Solubility ([1]; pH4): 3 µg/mL (≈ 7.95 µM) | Solubility ([1]; pH6): 1 µg/mL (≈ 2.65 µM) | Solubility ([1]; pH8): 1 µg/mL (≈ 2.65 µM) | Solubility ([1]; pH10): 2 µg/mL (≈ 5.3 µM) | Polymorphic composition (XRPD) after slurry ([2]; 2-propanol, 4° C., two days): III | Polymorphic composition (XRPD) after slurry ([2]; 2-propanol, 40° C., two days): III | Polymorphic composition (XRPD) after slurry ([2]; 2-propanol, RT, two days): III | Polymorphic composition (XRPD) after slurry ([2]; 2-propanone/water (8/2, v/v), 4° C., two days): hy | Polymorphic composition (XRPD) after slurry ([2]; 2-propanone/water (8/2, v/v), 40° C., two days): hy | Polymorphic composition (XRPD) after slurry ([2]; 2-propanone/water (8/2, v/v), RT, two days): hy | Polymorphic composition (XRPD) after slurry ([2]; methanol/water (8/2, v/v) containing hydrate seeds, 4° C.): III | Polymorphic composition (XRPD) after slurry ([2]; methanol/water (8/2, v/v) containing hydrate seeds, 40° C.): III | Polymorphic composition (XRPD) after slurry ([2]; methanol/water (8/2, v/v) containing hydrate seeds, RT): III | Polymorphic composition (XRPD) after slurry ([2]; methanol/water (8/2, v/v), 4° C., two days): III | Polymorphic composition (XRPD) after slurry ([2]; methanol/water (8/2, v/v), 40° C., two days): III | Polymorphic composition (XRPD) after slurry ([2]; methanol/water (8/2, v/v), RT, two days): III | XRPD measured composition ([3]; DSC treated Form III, up to 110° C.): Form III | XRPD measured composition ([3]; DSC treated Form III, up to 170° C.): Form I | XRPD measured composition ([3]; starting Form III): Form III

CCS(=O)(=O)O.Cn1cc(-c2ccc3nnc(C(F)(F)c4ccc5ncccc5c4)n3n2)cn1 [esylate salt]
Hygroscopicity [4]: hygroscopic | Water adsorbed ([4]; at high relative humidity): up to 34% | Measured pH [5]: pH = 2.1 | Solubility [5]: 0.025 g/100 ml H2O | Tmax [6]: 1.6 ± 0.5 h | t1/2 (4-24 h) [6]: 3.3 ± 0.4 h

CS(=O)(=O)O.Cn1cc(-c2ccc3nnc(C(F)(F)c4ccc5ncccc5c4)n3n2)cn1 [mesylate salt]
Hygroscopicity [4]: hygroscopic | Water adsorbed ([4]; at high relative humidity): up to 4.5% | Measured pH [5]: pH = 1.9 | Solubility [5]: 0.047 g/100 ml H2O | Tmax [6]: 1.2 ± 0.4 h | t1/2 (4-24 h) [6]: 3.7 ± 0.6 h

Cc1ccc(S(=O)(=O)O)cc1.Cn1cc(-c2ccc3nnc(C(F)(F)c4ccc5ncccc5c4)n3n2)cn1 [tosylate salt]
Hygroscopicity [4]: non-hygroscopic | Water adsorbed ([4]; depending on the atmospheric humidity): up to 0.2% | Measured pH [5]: pH = 2.1 | Solubility [5]: 0.023 g/100 ml H2O | Plasma concentration, Mean ± SD ([7]; 0.5 hours, 0.5% methocel suspension (LLOQ given in ng/ml)): 2193 ± 1031 | Plasma concentration, Mean ± SD ([7]; 1 hour): 2998 ± 1349 | Plasma concentration, Mean ± SD ([7]; 2 hours): 3274 ± 995 | Plasma concentration, Mean ± SD ([7]; 4 hours): 2512 ± 960 | Plasma concentration, Mean ± SD ([7]; 7 hours): 1625 ± 537 | Plasma concentration, Mean ± SD ([7]; 24 hours): 47.9 ± 24.0 | AUC0-24 h ([7]; Mean ± SD): 24307 ± 7457 ng·h/mL | AUC0-inf ([7]; Mean ± SD): 24558 ± 7503 ng·h/mL | Cmax ([7]; Mean ± SD): 3380 ± 944 ng/mL | Tmax ([7]; Mean ± SD): 2.0 ± 1.2 h | t1/2 (4-24 h) ([7]; Mean ± SD): 3.4 ± 0.6 h
